Data from ChEMBL document CHEMBL1201862, “PubChem BioAssay data set” (2004).
The source made the active and inactive calls.

Experiments:
[1] = molecular target: T1, Rac GTPase-activating protein 1 (Homo sapiens, UniProt Q9H0H5); test: MgcRacGAP GTPase-activating activity inhibitors, confirmation, biochemical, ADP Hunter fluorescence, primary and confirmatory (AID 624330); assay type: functional
T1 sequence (Q9H0H5 whole entry): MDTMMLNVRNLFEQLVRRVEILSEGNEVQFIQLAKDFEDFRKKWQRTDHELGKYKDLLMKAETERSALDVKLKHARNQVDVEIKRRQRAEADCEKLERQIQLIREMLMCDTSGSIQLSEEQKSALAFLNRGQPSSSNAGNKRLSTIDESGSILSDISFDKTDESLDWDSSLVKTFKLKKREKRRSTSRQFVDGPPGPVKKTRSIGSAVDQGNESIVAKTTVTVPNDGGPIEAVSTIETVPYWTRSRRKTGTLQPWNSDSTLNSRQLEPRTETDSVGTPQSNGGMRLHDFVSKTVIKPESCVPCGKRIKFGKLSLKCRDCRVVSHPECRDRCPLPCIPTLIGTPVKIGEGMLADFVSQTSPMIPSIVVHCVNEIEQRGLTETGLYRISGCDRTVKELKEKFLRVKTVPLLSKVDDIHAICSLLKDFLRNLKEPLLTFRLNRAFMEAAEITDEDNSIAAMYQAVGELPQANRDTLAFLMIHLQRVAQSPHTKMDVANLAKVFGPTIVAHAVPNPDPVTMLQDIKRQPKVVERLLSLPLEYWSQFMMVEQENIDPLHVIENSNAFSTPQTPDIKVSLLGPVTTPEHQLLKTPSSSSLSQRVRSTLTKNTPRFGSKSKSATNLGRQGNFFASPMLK

[2] = HeLa cell cytotoxicity, dose response, cytotoxicity control for MgcRacGAP inhibitor project (AID 624300); assay type: functional
[3] = molecular target: Nonstructural protein 1 (Influenza A virus, UniProt Q194T2); assay type: functional, Influenza A virus (A/California/07/2009(H1N1))
Nonstructural protein 1, sequence (Q194T2 whole entry): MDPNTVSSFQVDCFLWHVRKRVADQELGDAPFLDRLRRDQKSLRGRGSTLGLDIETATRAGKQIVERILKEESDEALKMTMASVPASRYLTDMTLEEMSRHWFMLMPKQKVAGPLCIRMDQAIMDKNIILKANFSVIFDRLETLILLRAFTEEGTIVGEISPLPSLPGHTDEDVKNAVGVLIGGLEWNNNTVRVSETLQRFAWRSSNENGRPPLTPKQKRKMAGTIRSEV

[4] = molecular target: T2, Low molecular weight phosphotyrosine protein phosphatase (Homo sapiens, UniProt P24666); assay type: functional; conditions: read-out: IC50_Mean
T2 sequence (P24666 whole entry): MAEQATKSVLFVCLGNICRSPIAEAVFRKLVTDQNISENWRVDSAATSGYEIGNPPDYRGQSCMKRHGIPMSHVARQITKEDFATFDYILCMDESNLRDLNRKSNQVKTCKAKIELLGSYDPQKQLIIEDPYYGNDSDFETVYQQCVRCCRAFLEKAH

[5] = cells; assay type: functional
[6] = Fluorescence-based cell-based high throughput dose response assay for inhibitors of the interaction of nucleotide-binding oligomerization domain containing 2 (NOD2) and the receptor-interacting serine-threonine kinase 2 (RIPK2).; assay type: functional; conditions: Homo sapiens
[7] = molecular target: T3, Protein RecA (Mycobacterium tuberculosis, UniProt P9WHJ3); test: Fluorescence Cell-Free Homogeneous Dose Retest to Identify Inhibitors of RecA-Intein Splicing Activity. [Related pubchem assays (depositor defined):AID2097, AID2223, AID489010, AID492950]; assay type: functional
T3 sequence (P9WHJ3 whole entry): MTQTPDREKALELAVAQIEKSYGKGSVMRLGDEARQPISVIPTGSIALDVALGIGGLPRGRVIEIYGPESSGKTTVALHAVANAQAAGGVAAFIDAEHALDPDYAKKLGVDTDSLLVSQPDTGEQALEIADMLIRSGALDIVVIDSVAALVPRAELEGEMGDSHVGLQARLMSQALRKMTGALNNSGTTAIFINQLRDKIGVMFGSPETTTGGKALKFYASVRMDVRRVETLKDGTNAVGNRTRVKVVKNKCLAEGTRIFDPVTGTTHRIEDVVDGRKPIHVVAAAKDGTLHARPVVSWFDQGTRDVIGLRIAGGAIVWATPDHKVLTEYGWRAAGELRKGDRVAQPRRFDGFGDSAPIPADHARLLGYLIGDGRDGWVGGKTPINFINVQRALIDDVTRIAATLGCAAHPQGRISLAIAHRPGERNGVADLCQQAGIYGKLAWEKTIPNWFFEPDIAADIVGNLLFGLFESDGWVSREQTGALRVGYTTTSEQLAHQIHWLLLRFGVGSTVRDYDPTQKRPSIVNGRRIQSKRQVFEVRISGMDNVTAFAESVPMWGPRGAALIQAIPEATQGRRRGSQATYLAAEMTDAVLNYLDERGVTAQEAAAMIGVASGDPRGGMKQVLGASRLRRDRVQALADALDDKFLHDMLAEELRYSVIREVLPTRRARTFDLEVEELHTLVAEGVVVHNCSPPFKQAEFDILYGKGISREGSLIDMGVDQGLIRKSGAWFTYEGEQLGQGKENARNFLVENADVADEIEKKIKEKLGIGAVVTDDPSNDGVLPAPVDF

[8] = Vero E6 cell cytotoxicity, dose response, cytotoxicity control for non-replicating M. tuberculosis project, secondary assay (AID 492998); assay type: functional, VeroE6; conditions: Vero C1008
[9] = molecular target: T4, Replicative DNA helicase DnaB (Mycobacterium tuberculosis, UniProt P9WMR3); test: DnaB intein splicing inhibitors, dose response, biochemical, cell-free fluorescence (AID 449749); assay type: functional
T4 sequence (P9WMR3 whole entry): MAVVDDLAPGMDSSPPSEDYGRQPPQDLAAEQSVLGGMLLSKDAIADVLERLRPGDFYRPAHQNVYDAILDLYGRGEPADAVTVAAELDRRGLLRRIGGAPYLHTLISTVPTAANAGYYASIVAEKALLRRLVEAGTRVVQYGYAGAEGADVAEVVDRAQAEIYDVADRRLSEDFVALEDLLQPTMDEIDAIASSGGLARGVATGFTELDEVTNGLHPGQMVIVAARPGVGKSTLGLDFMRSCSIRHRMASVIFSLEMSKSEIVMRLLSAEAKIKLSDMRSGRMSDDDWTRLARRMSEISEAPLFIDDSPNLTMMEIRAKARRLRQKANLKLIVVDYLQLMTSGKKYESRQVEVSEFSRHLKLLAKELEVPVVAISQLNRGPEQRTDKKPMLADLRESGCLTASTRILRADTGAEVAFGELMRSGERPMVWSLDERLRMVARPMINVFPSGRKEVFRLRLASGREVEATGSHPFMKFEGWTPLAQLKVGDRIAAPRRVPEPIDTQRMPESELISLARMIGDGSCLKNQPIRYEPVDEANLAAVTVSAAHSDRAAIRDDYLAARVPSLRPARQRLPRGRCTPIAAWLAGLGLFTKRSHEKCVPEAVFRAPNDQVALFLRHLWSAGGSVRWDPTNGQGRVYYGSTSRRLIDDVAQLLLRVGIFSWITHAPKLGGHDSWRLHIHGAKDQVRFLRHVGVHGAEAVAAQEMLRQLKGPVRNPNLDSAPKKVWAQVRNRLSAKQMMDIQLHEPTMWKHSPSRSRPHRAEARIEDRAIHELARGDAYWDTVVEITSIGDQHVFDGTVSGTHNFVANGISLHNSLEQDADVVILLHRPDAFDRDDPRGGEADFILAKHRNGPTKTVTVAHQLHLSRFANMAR

[10] = THP-1 cell cytotoxicity, dose response, cytotoxicity control for non-replicating M. tuberculosis project (AID 489025); assay type: functional
[11] = molecular target: ADP-ribosylation factor GTPase-activating protein 1 (Rattus norvegicus, UniProt Q62848); test: Fluorescence polarization-based biochemical high throughput dose response screening assay to identify inhibitors of ADP-ribosylation factor GTPase activating protein 1 (ARFGAP1).; assay type: functional
ADP-ribosylation factor GTPase-activating protein 1, sequence (Q62848 whole entry): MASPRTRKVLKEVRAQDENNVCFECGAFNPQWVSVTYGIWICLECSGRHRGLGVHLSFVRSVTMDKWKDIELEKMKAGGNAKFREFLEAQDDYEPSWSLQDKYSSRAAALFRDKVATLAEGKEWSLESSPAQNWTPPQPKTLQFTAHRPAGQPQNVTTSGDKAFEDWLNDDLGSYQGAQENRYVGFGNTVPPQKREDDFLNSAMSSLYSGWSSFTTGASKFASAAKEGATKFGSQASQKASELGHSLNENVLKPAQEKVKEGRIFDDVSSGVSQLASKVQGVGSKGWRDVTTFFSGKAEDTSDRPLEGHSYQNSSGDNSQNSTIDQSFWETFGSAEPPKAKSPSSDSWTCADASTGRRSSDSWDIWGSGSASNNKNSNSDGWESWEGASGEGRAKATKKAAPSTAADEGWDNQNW

[12] = Counterscreen for inhibitors of Trypanosoma brucei methionyl tRNA synthetase (MetRS): Luminescence-based cell-based high throughput dose response assay to identify compounds that are cytotoxic to Jurkat human T lymphocyte cells.; assay type: functional; conditions: Homo sapiens, Jurkat
[13] = molecular target: T5, Methionyl-tRNA synthetase, putative (Trypanosoma brucei brucei, UniProt Q38C91); assay type: functional, Trypanosoma brucei brucei strain 927/4 GUTat10.1
T5 sequence (Q38C91 whole entry): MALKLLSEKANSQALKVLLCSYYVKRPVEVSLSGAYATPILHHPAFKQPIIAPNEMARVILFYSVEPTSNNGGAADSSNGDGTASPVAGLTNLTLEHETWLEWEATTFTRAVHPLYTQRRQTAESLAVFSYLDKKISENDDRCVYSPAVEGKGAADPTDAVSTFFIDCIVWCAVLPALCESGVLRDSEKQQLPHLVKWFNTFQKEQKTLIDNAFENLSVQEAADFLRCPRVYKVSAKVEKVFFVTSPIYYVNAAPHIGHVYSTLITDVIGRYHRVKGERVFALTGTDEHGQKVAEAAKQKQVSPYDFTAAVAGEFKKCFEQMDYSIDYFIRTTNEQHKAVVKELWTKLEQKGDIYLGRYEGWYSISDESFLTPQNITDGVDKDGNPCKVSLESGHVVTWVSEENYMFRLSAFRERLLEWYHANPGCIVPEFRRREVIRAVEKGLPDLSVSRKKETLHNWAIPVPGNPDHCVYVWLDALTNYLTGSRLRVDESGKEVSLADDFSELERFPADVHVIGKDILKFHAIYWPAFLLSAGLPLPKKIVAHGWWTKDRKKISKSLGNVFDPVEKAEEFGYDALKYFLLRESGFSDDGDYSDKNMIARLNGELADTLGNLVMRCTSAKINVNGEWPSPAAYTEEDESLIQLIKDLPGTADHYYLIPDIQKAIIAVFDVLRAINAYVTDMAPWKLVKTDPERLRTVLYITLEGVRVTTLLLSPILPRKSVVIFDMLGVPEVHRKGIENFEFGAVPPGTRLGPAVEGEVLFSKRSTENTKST

[14] = molecular target: T5, Methionyl-tRNA synthetase, putative; assay type: functional, Trypanosoma brucei brucei strain 927/4 GUTat10.1; remark: listed apart in the source
[15] = molecular target: Tyrosine-protein phosphatase non-receptor type 22 (Homo sapiens, UniProt Q9Y2R2); test: PTPN22 phosphatase inhibition, dose response, selectivity assay for STEP inhibitor project, biochemical (AID 624241); assay type: functional
Tyrosine-protein phosphatase non-receptor type 22, sequence (Q9Y2R2 whole entry): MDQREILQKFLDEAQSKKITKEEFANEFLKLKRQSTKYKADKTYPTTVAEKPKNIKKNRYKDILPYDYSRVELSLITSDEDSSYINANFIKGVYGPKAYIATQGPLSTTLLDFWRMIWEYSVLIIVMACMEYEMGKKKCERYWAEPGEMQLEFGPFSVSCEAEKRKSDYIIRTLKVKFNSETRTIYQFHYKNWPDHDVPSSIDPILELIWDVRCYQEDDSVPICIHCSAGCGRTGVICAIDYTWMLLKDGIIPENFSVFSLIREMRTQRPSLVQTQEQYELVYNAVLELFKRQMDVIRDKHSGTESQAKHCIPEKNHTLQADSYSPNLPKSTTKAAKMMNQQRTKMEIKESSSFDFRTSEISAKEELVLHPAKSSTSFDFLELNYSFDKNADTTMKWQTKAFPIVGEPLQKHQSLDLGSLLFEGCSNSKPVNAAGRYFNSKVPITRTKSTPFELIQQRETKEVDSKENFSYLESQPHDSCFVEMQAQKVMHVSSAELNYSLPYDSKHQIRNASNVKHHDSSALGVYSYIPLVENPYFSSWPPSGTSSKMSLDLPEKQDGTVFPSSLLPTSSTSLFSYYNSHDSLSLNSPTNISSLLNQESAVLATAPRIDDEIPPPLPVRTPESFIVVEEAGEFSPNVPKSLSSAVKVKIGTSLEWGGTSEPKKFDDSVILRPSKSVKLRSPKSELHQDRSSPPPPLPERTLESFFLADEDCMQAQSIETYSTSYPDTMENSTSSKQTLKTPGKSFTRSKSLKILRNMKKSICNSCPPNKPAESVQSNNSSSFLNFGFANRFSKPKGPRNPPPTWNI

[16] = molecular target: T6, Tyrosine-protein phosphatase non-receptor type 5 (Homo sapiens, UniProt P54829); test: STEP phosphatase inhibitors, confirmation, biochemical, fluorescence intensity, uHTS hits (AID 602372); assay type: functional; conditions: read-out: IC50_Mean
T6 sequence (P54829 whole entry): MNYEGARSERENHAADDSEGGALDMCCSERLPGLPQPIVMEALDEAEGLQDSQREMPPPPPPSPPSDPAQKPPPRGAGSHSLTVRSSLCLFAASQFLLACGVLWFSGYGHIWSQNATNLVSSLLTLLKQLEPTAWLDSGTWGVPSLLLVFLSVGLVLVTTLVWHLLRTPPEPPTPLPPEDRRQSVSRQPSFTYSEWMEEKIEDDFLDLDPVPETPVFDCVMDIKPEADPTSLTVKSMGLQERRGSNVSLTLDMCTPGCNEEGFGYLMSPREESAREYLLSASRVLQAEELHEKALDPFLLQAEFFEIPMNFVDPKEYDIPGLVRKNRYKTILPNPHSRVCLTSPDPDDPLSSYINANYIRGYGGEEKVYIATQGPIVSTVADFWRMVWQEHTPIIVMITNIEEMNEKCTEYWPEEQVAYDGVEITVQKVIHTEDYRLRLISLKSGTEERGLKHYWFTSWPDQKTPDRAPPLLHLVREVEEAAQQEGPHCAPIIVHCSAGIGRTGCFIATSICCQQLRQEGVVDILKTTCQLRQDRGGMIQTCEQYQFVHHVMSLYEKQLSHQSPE

[17] = molecular target: Dual specificity protein phosphatase 3 (Homo sapiens, UniProt P51452); test: VHR phosphatase inhibition, dose response, selectivity assay for STEP inhibitor project, biochemical (AID 602374); assay type: functional; conditions: read-out: IC50_Mean
Dual specificity protein phosphatase 3, sequence (P51452 whole entry): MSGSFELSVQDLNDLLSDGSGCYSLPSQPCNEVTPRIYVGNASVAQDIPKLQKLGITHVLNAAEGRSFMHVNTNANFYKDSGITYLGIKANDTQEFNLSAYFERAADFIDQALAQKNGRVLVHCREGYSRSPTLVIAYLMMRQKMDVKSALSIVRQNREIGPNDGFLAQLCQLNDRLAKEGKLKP

[18] = molecular target: G-protein coupled receptor 55 (Homo sapiens, UniProt Q9Y2T6); test: GPR55 antagonists blocking LPI-driven arrestin recruitment, primary screen, imaging, U2OS, beta-arrestin-GFP, LPI agonist (AID 2013); assay type: functional;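 also: antagonist potency measured as reduced agonist-driven arrestin aggregation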
G-protein coupled receptor 55, sequence (Q9Y2T6 whole entry): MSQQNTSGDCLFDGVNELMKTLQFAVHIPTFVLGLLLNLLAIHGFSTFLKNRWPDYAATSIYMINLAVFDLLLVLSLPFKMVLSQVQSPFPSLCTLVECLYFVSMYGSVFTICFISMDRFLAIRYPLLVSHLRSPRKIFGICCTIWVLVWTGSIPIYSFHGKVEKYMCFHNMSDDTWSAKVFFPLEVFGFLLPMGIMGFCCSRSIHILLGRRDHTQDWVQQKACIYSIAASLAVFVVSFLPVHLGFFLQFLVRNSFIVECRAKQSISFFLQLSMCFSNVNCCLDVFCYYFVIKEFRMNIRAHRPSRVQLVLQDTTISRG

[19] = molecular target: T7, Tyrosine-protein phosphatase non-receptor type 11 (Homo sapiens, UniProt Q06124); test: SHP2 phosphatase inhibition, dose response, selectivity assay for STEP inhibitor project, biochemical (AID 602367); assay type: functional; conditions: read-out: IC50_Mean
T7 sequence (Q06124 whole entry): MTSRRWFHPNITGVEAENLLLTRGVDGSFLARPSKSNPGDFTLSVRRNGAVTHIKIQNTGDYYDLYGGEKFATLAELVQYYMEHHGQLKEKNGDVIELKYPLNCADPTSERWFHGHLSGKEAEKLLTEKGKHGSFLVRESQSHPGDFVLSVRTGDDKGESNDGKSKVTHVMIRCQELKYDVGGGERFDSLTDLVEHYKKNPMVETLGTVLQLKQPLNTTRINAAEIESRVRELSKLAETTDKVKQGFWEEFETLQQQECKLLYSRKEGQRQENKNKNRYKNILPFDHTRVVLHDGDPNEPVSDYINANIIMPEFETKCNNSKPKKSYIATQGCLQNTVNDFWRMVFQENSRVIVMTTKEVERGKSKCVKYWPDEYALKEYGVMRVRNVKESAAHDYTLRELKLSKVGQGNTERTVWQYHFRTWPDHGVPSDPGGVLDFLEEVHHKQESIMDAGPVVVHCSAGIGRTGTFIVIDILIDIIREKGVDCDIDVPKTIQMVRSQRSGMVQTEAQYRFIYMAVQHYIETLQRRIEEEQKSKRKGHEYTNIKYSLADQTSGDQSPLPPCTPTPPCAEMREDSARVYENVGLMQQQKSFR

With `COc1ccc2c(c1)-c1c(ssc1=S)C(C)(C)N2` the IC50 [1] was 29.4 µM (active), the CC50 [2] was 100 µM (active) and the IC50 [3] was 22.7 µM (active).
With `NC(=S)NN=C1Cc2cccc3cccc1c23` the IC50 [4] was 4.94 µM (active).
For `Cc1noc2ncnc(Sc3ccccc3Cl)c12`, the IC50 [5] was 9.99 µM (active), the IC50 [6] was 4.4 µM (active) and the EC50 [7] was 4.04 µM (active). For the same compound, the CC50 [8] was 16.9 µM (active), the AC50 [9] was 12.2 µM (active) and the CC50 [10] was 20.2 µM (active).
In the case of `Cc1cc(OCC(=O)Nc2cccnc2)c2c(C)c(C)c(=O)oc2c1`, the IC50 [11] is reported as 64.9 µM (inactive).
For `O=S(=O)(c1ccc2[nH]c(SCc3ccc(Cl)cc3)nc2c1)N1CCOCC1`, the IC50 [12] was 16.9 µM (inactive).
With `O=S(=O)(c1ccc2nc(SCc3ccc(Cl)cc3)[nH]c2c1)N1CCOCC1` the IC50 [13] was 32.3 µM (inactive) and the IC50 [14] was 30.8 µM (inactive).
For `COc1ccccc1NS(=O)(=O)c1cc(NC(=S)NCCN2CCOCC2)ccc1N1CCOCC1`, the IC50 [15] was 31.4 µM (inactive), the IC50 [16] was 8.37 µM (active) and the IC50 [17] was 0.498 µM (active). The IC50 [18] was 3.2 µM (active) and the IC50 [19] was 0.891 µM (active).
